Where two headings read alike, the source gives them in different places.
Columns and labels:
[1] = Hygroscopic nature of the solid; assay type: physicochemical
Tapped bulk density = assay type: physicochemical
[2] = Stability at 40 ± 2° C. & 75 ± 5% RH; assay type: physicochemical; conditions: for Assay: in % (unit assumed)
Protocol: (§1) In still another embodiment of the present invention, novel anhydrous crystalline polymorph of Ceftiofur sodium (Form A) of formula (I) having the following X-ray diffraction characteristic peaks (±0.2°2θ): 5.68, 6.54, 8.84, 12.82, 13.16, 16.33, 17.36, 18.71, 18.94, 20.25, 21.53, 22.11, 22.79, 24.44, 24.88, 25.46, and 27.00 in °2θ. The anhydrous crystalline Ceftiofur sodium of the present invention has moisture content in the range of 0.4 to 2.0%. The anhydrous Ceftiofur sodium (Form A) is prepared by drying the Ceftiofur sodium either under vacuum or under normal pressure at a temperature in the range of 60-125° C. till the moisture content reaches 0.4 to 2.0%. The moisture content of Ceftiofur sodium is measured by using Karl-Fisher technique. The following tables (Table 2 & 3) provide stability data of anhydrous crystalline Ceftiofur Sodium (Form A) prepared according to this invention. From this table it is evident that the anhydrous crystalline Ceftiofur Sodium prepared according this invention is very stable and highly pure, which is clearly indicated by total RS (Related substances) analysis & the stability data.

[3] = Stability at 25 ± 2° C. & 60 ± 5% RH; assay type: physicochemical; conditions: for Assay: in % (unit assumed)
Protocol: as §1

[4] = Stability over shelf life (statement in words); conditions: over the shelf life period

For `CO/N=C(\C(=O)N[C@@H]1C(=O)N2C(C(=O)[O-])=C(CSC(=O)c3ccco3)CS[C@H]12)c1csc(N)n1.[Na+]` [Form A, Ceftiofur sodium], the “Nature (hygroscopicity)” value [1] was “Non-Hygroscopic”, the “Nature (hygroscopicity)” value ([1]; listed as anhydrous crystalline Ceftiofur sodium) was “non-hygroscopic” and the “Tapped Bulk density” value (Tapped bulk density) was 0.7 g/mL. The Moisture Content ([2]; 3 Months) was 1.08%, the Total RS (Related substances) ([2]; 3 Months) was 0.19% and the Assay ([2]; 3 Months) was 98.14. For the same compound, the Moisture Content ([2]; 6 month) was 1.54%, the Total RS (Related substances) ([2]; 6 month) was 0.33% and the Assay ([2]; 6 month) was 98.64. It also gave a Moisture Content ([2]; Initial) of 1.05%, a Total RS (Related substances) ([2]; Initial) of 0.15% and an Assay ([2]; Initial) of 99.74. For the same compound, the Moisture Content ([3]; 3 Months) was 1.05%, the Total RS (Related substances) ([3]; 3 Months) was 0.16% and the Assay ([3]; 3 Months) was 98.84. The Moisture Content ([3]; 6 month) was 1.11%, the Total RS (Related substances) ([3]; 6 month) was 0.21% and the Assay ([3]; 6 month) was 99.47. The Moisture Content ([3]; Initial) was 1.05%, the Total RS (Related substances) ([3]; Initial) was 0.15% and the Assay ([3]; Initial) was 99.74. For the same compound, the Stability [4] was “good”.
For `CO/N=C(\C(=O)N[C@@H]1C(=O)N2C(C(=O)[O-])=C(CSC(=O)c3ccco3)CS[C@H]12)c1csc(N)n1.[Na+]` [Amorphous, Ceftiofur sodium, reference compound], the “Nature (hygroscopicity)” value ([1]; listed as conventional amorphous Ceftiofur sodium) was “highly hygroscopic”, the “Tapped Bulk density” value (Tapped bulk density) was 0.5 g/mL and the Stability ([4]; listed as amorphous Ceftiofur sodium) was “less stable”.
